Where two headings read alike, the source gives them in different places.
Assays:
Mcl-1 protein = Mcl-1 protein (UniProtKB primary accession number: Q07820) (Homo sapiens, UniProt Q07820); assay: Inhibition of Mcl-1 by fluorescence polarisation, Method 1; assay type: binding; settings: read-out: IC50 (M) Mcl-1 FP
How it was run: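 FP readout of relative binding potency. Mcl-1 5 nM final, fluorescein-labelled ligand 1 nM final; buffer 10 mM HEPES, 150 mM NaCl, 0.05% Tween 20, pH 7.4; 11-pt dilution series, 5% DMSO final.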

[1] = test system: H929 multiple myeloma tumour line; assay: In vitro cytotoxicity, Microculture Tetrazolium Assay; assay type: cell-based; settings: H929 cells, 48 hours exposure, MTT, read-out: IC50 (μM) MTT H929
Method: The cytotoxicity studies were carried out on the H929 multiple myeloma tumour line.
The cells are distributed onto microplates and exposed to the test compounds for 48 hours.

[2] = fluorescence polarisation test, Method 2 values are underlined in the patent (underlining not visible here)
[3] = fluorescence polarisation, Method 1, or Method 2

Mcl-1 protein, sequence (Q07820 whole entry): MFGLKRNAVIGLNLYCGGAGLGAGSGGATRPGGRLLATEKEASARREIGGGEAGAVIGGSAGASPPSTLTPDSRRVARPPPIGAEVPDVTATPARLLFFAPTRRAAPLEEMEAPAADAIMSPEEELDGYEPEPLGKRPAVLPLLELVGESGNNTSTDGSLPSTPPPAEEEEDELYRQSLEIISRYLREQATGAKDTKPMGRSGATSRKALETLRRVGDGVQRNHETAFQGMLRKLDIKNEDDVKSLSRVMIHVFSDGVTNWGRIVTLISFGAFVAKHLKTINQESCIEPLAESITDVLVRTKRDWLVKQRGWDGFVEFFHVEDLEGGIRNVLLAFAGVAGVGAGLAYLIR

| IC50 (Mcl-1 protein; [2]) [M] | IC50 (Mcl-1 protein; [3]) [M] | SMILES | IC50 ([1]; Homo sapiens, NCI-H929, 48 h) [µM] | IC50 [1] [µM] |
| --- | --- | --- | --- | --- |
| 9.3e-09 | – | Cc1c(-c2c(-c3ccco3)sc3ncnc(OC(Cc4ccccc4OCCOCc4ccccc4)C(=O)O)c23)ccc(OCCN2CCN(C)CC2)c1Cl [Example 292, (2R)-3-{2-[2-(benzyloxy)ethoxy]phenyl}-2-{[(5Sa)-5-{3-chloro-2-methyl-4-[2-(4-methylpiperazin-1-yl)ethoxy]phenyl}-6-(furan-2-yl)thieno[2,3-d]pyrimidin-4-yl]oxy}propanoic acid] | 0.192 | – |
| – | 8.5e-08 | CCc1sc2ncnc(OC(Cc3cccc4ccoc34)C(=O)O)c2c1-c1ccc(OCCN2CCN(C)CC2)c(Cl)c1C [Example 461, (2R)-3-(1-benzofuran-7-yl)-2-[((5Sa)-5-{3-chloro-2-methyl-4-[2-(4-methylpiperazin-1-yl)ethoxy]phenyl}-6-ethylthieno[2,3-d]pyrimidin-4-yl)oxy]propanoic acid] | 4.86 | – |
| – | 9.3e-10 | Cc1c(-c2c(-c3ccc(F)nc3)sc3ncnc(OC(Cc4ccccc4OCc4ccnn4CC(F)(F)F)C(=O)O)c23)ccc(OCCN2CCN(C)CC2)c1Cl [Example 693, (2R)-2-{[(5Sa)-5-{3-chloro-2-methyl-4-[2-(4-methylpiperazin-1-yl)ethoxy]phenyl}-6-(6-fluoropyridin-3-yl)thieno[2,3-d]pyrimidin-4-yl]oxy}-3-(2-{[1-(2,2,2-trifluoroethyl)-1H-pyrazol-5-yl]methoxy}phenyl)propanoic acid] | 0.101 | – |
| – | 2.8e-07 | Cc1c(-c2c(-c3ccc(Cl)s3)sc3ncnc(OC(Cc4ccccc4)C(=O)O)c23)ccc(OCCN2CCN(C)CC2)c1Cl [Example 501, (2R)-2-{[(5Sa)-5-{3-chloro-2-methyl-4-[2-(4-methylpiperazin-1-yl)ethoxy]phenyl}-6-(5-chlorothiophen-2-yl)thieno[2,3-d]pyrimidin-4-yl]oxy}-3-phenylpropanoic acid] | 2.84 | – |
| – | 1.6e-08 | Cc1c(-c2c(-c3ccc(OCC(F)(F)F)nc3)sc3ncnc(OC(Cc4ccccc4OCc4ccnn4CC(F)(F)F)C(=O)O)c23)ccc(OCCN2CCN(C)CC2)c1Cl [Example 695, (2R)-2-[((5Sa)-5-{3-chloro-2-methyl-4-[2-(4-methylpiperazin-1-yl)ethoxy]phenyl}-6-[6-(2,2,2-trifluoroethoxy)pyridin-3-yl]thieno[2,3-d]pyrimidin-4-yl)oxy]-3-(2-{[1-(2,2,2-trifluoroethyl)-1H-pyrazol-5-yl]methoxy}phenyl)propanoic acid] | 0.268 | – |
| 9.2e-09 | – | Cc1c(-c2c(-c3ccc(Cl)o3)sc3ncnc(OC(Cc4ccccc4OCc4cnccn4)C(=O)O)c23)ccc(OCCN2CCN(C)CC2)c1Cl [Example 374, (2R)-2-{[6-(5-chlorofuran-2-yl)-(5Sa)-5-{3-chloro-2-methyl-4-[2-(4-methylpiperazin-1-yl)ethoxy]phenyl}thieno[2,3-d]pyrimidin-4-yl]oxy}-3-[2-(pyrazin-2-ylmethoxy)phenyl]propanoic acid] | 0.038 | – |
| 4e-08 | – | Cc1c(-c2c(-c3ccco3)sc3ncnc(OC(Cc4ccccc4OCc4c5ccccc5nn4C)C(=O)O)c23)ccc(OCCN2CCN(C)CC2)c1Cl [Example 282, (2R)-2-{[(5Sa)-5-{3-chloro-2-methyl-4-[2-(4-methylpiperazin-1-yl)ethoxy]phenyl}-6-(furan-2-yl)thieno[2,3-d]pyrimidin-4-yl]oxy}-3-{2-[(2-methyl-2H-indazol-3-yl)methoxy]phenyl}propanoic acid] | 0.601 | – |
| – | 2.1e-08 | COc1ccccc1CC(Oc1ncnc2sc(-c3ccc(F)cc3)c(-c3ccc(OCCN4CCN(C)CC4)c(Br)c3C)c12)C(=O)O [Example 646, (2R)-2-{[(5Sa)-5-{3-bromo-2-methyl-4-[2-(4-methylpiperazin-1-yl)ethoxy]phenyl}-6-(4-fluorophenyl)thieno[2,3-d]pyrimidin-4-yl]oxy}-3-(2-methoxyphenyl)propanoic acid] | 0.298 | – |
| 3.9e-09 | – | Cc1cc(COc2ccccc2CC(Oc2ncnc3sc(-c4ccc(F)o4)c(-c4ccc(OCCN5CCN(C)CC5)c(Cl)c4C)c23)C(=O)O)ncn1 [Example 161, (2R)-2-{[(5Sa)-5-{3-chloro-2-methyl-4-[2-(4-methylpiperazin-1-yl)ethoxy]phenyl}-6-(5-fluorofuran-2-yl)thieno[2,3-d]pyrimidin-4-yl]oxy}-3-{2-[(6-methylpyrimidin-4-yl)methoxy]phenyl}propanoic acid] | 0.081 | – |
| – | 1.4e-08 | CCc1sc2ncnc(OC(Cc3ccccc3)C(=O)O)c2c1-c1ccc(OCCNC(C)=O)c(Cl)c1C [Example 422, (2R)-2-[((5Sa)-5-{4-[2-(acetylamino)ethoxy]-3-chloro-2-methylphenyl}-6-ethylthieno[2,3-d]pyrimidin-4-yl)oxy]-3-phenylpropanoic acid] | 14.4 | – |
| 4e-09 | – | Cc1c(-c2c(-c3ccc(F)cc3)sc3ncnc(OC(Cc4ccccc4OCc4ccnc(OCc5ccncc5)n4)C(=O)O)c23)ccc(OCCN2CCN(C)CC2)c1Cl [Example 59, (2R)-2-{[(5Sa)-5-{3-chloro-2-methyl-4-[2-(4-methylpiperazin-1-yl)ethoxy]phenyl}-6-(4-fluorophenyl)thieno[2,3-d]pyrimidin-4-yl]oxy}-3-(2-{[2-(pyridin-4-ylmethoxy)pyrimidin-4-yl]methoxy}phenyl)propanoic acid] | 0.021 | – |
| 5.4e-09 | – | COCCOCCOCCOc1ccccc1CC(Oc1ncnc2sc(-c3ccc(F)o3)c(-c3ccc(OCCN4CCN(C)CC4)c(Cl)c3C)c12)C(=O)O [Example 197, (2R)-2-{[(5Sa)-5-{3-chloro-2-methyl-4-[2-(4-methylpiperazin-1-yl)ethoxy]phenyl}-6-(5-fluorofuran-2-yl)thieno[2,3-d]pyrimidin-4-yl]oxy}-3-(2-{2-[2-(2-methoxyethoxy)ethoxy]ethoxy}phenyl)propanoic acid] | 0.07 | – |
| – | 5e-09 | CCCCn1nccc1COc1ccccc1CC(Oc1ncnc2sc(-c3ccc(OC)cc3)c(-c3ccc(OCCN4CCN(C)CC4)c(Cl)c3C)c12)C(=O)O [Example 603, (2R)-3-{2-[(1-butyl-1H-pyrazol-5-yl)methoxy]phenyl}-2-{[(5Sa)-5-{3-chloro-2-methyl-4-[2-(4-methylpiperazin-1-yl)ethoxy]phenyl}-6-(4-methoxyphenyl)thieno[2,3-d]pyrimidin-4-yl]oxy}propanoic acid] | 0.036 | – |
| 6.7e-09 | – | CCCOc1nccc(COc2ccccc2CC(Oc2ncnc3sc(-c4ccc(F)cc4)c(-c4ccc(OCCN5CCN(C)CC5)c(Cl)c4C)c23)C(=O)O)n1 [Example 61, (2R)-2-{[(5Sa)-5-{3-chloro-2-methyl-4-[2-(4-methylpiperazin-1-yl)ethoxy]phenyl}-6-(4-fluorophenyl)thieno[2,3-d]pyrimidin-4-yl]oxy}-3-{2-[(2-propoxypyrimidin-4-yl)methoxy]phenyl}propanoic acid] | 0.01 | – |
| 7.3e-09 | – | Cc1c(-c2c(-c3ccco3)sc3ncnc(OC(Cc4ccccc4OCc4cccnc4)C(=O)O)c23)ccc(OCCN2CCN(C)CC2)c1Cl [Example 242, (2R)-2-{[(5Sa)-5-{3-chloro-2-methyl-4-[2-(4-methylpiperazin-1-yl)ethoxy]phenyl}-6-(furan-2-yl)thieno[2,3-d]pyrimidin-4-yl]oxy}-3-[2-(pyridin-3-ylmethoxy)phenyl]propanoic acid] | 0.09 | – |
| 2.2e-08 | – | Cc1c(-c2c(-c3ccco3)sc3ncnc(OC(Cc4ccccc4OCc4cnc(N5CCCC5)nc4)C(=O)O)c23)ccc(OCCN2CCN(C)CC2)c1Cl [Example 272, (2R)-2-{[(5Sa)-5-{3-chloro-2-methyl-4-[2-(4-methylpiperazin-1-yl)ethoxy]phenyl}-6-(furan-2-yl)thieno[2,3-d]pyrimidin-4-yl]oxy}-3-(2-{[2-(pyrrolidin-1-yl)pyrimidin-5-yl]methoxy}phenyl)propanoic acid] | 0.822 | – |
| – | 2.8e-08 | COc1ccccc1C[C@@H](Oc1ncnc2sc(-c3ccc(F)c(F)c3)c(-c3ccc(OCCN4CCN(C)CC4)c(Cl)c3C)c12)C(=O)O [Example 533, (2R)-2-{[(5Sa)-5-{3-chloro-2-methyl-4-[2-(4-methylpiperazin-1-yl)ethoxy]phenyl}-6-(3,4-difluorophenyl)thieno[2,3-d]pyrimidin-4-yl]oxy}-3-(2-methoxyphenyl)propanoic acid] | – | 0.201 |
| – | 3.4e-08 | CCc1sc2ncnc(OC(Cc3ccccc3)C(=O)O)c2c1-c1ccc(OCCN2CCNC2=O)c(Cl)c1C [Example 419, (2R)-2-[((5Sa)-5-{3-chloro-2-methyl-4-[2-(2-oxoimidazolidin-1-yl)ethoxy]phenyl}-6-ethylthieno[2,3-d]pyrimidin-4-yl)oxy]-3-phenylpropanoic acid] | 21.5 | – |
| 1.5e-08 | – | COc1ccccc1CC(Oc1ncnc2sc(-c3ccco3)c(-c3ccc(OCC4CCN(C)CC4)c(Cl)c3C)c12)C(=O)O [Example 311, (2R)-2-{[(5Sa)-5-{3-chloro-2-methyl-4-[(1-methylpiperidin-4-yl)methoxy]phenyl}-6-(furan-2-yl)thieno[2,3-d]pyrimidin-4-yl]oxy}-3-(2-methoxyphenyl)propanoic acid] | 1.59 | – |
| – | 3.78e-09 | COc1ccccc1-n1nccc1COc1ccccc1CC(Oc1ncnc2sc(-c3ccc(F)cc3)c(-c3ccc(OCCN4CCN(C)CC4)c(Cl)c3C)c12)C(=O)O [Example 738, (2R)-2-{[(5Sa)-5-{3-chloro-2-methyl-4-[2-(4-methylpiperazin-1-yl)ethoxy]phenyl}-6-(4-fluorophenyl)thieno[2,3-d]pyrimidin-4-yl]oxy}-3-(2-{[1-(2-methoxyphenyl)-1H-pyrazol-5-yl]methoxy}phenyl)propanoic acid] | 0.103 | – |

Reference: patent US9670227B2, “Thienopyrimidine derivatives, a process for their preparation and pharmaceutical compositions containing them” (LES LABORATOIRES SERVIER, priority 2013, dated 2017)
